Experimental data taken from patent US20100168434A1, “INHIBITION OF POLYMERISATION” (priority 2005, published 2010).

Key:
[1] = Continuous stirred tank reactor (CSTR) styrene polymerisation inhibition; conditions: CSTR 110° C., inhibitor 75 ppm; for Polymer level at steady state: nitrogen sparging
Procedure: The evaluation of the efficacy of a selection of nitroxide compounds of the invention was carried out using a continuous stirred tank reactor (CSTR) which mimicked the re-boiler of a styrene distillation column. […] Data gathered after this point was averaged to give the steady state polymer level. Nitrogen sparging to remove oxygen gas was carried out at a measured rate of 200 ml/minute. Apart from the inhibitors, the only variable was the inherent variation in the rate of thermal initiation of styrene polymerisation.

[2] = Sealed-tube polymerisation inhibition, vinyl acetate monomer; conditions: degassed with nitrogen, 160° C. for 48 hours, inhibitor 25 ppm
Procedure: (§1) The efficacy of various inhibitors was evaluated with respect to the monomers vinyl acetate, acrylonitrile, 2-ethylhexyl acrylate and isoprene. The efficacy of each inhibitor was determined by heating in pure monomer or a solution of monomer in a suitable solvent(s) for a set time and at a known temperature. The storage inhibitor was removed from each monomer by distillation or treatment with neutral silica. In each of the tables below, the amount of polymer generated is expressed as % w/w of the monomer.
In this case, the tubes and solution were degassed with nitrogen prior to sealing and heating at 160° C. for 48 hours.

[3] = Tube polymerisation inhibition, acrylonitrile monomer; conditions: 120° C. for 7 days, air not removed, inhibitor 10 ppm
Procedure: as §1
Similarly, tubes containing acrylonitrile and various inhibitors were heated at 120° C. for 7 days. The air was not removed from these solutions prior to heating.

[4] = Tube inhibition time, 2-ethylhexyl acrylate monomer; conditions: 145° C., 5 ppm inhibitor, time to appearance of insoluble polymer
Procedure: as §1
Similarly, tubes containing 5 ppm inhibitor in 2-ethylhexyl acrylate were heated at 145° C. and the results expressed as inhibition time (i.e. the time to appearance of insoluble polymer). Data were generated in nitrogen and in the presence of air.

[5] = Tube polymerisation inhibition, isoprene monomer; conditions: 100 ppm inhibitor, 160° C. for 1 hr
Procedure: as §1
Similarly tubes containing 100 ppm inhibitor in a solution of Isoprene in dimethylformamide containing 1 or 3% furfural were heated at 160° C. for 1 hr. […] The results are expressed as ppm insoluble polymer.

[6] = Solubility of inhibitors/retarders in styrene with and without 4-butoxy-TEMPO; conditions: in 4-butoxy-TEMPO plus styrene, 20° C.
Procedure: Saturated solutions of the inhibitors/retarders phenothiazine and 4-methoxyphenol were prepared in 4-butoxy-TEMPO. These saturated solutions were then added to styrene so that the concentration of each inhibitor/retarder was above the solubility limit for that material in styrene alone.

[7] = Solubility in water and toluene (saturated solutions, amount dissolved)

4-butoxy-2,2,6,6-tetramethylpiperidine-1-oxide [4-butoxy-TEMPO]
Polymer level at steady state [1]: 341 ppm
Polymer [2]: 19 % w/w
Polymer [3]: 0.06 % w/w
Inhibition time in air ([4]; air): 40 min
Inhibition time in nitrogen ([4]; nitrogen): 350 min
Insoluble polymer, 1% Furfural ([5]; isoprene in dimethylformamide with 1% furfural): 2.2 ppm
Insoluble polymer, 3% Furfural ([5]; isoprene in dimethylformamide with 3% furfural): 5.3 ppm

c1ccc2c(c1)Nc1ccccc1S2 [Phenothiazine, phenothiazine]
Polymer [2]: 35 % w/w
Soluble amount, Wt % test material (with respect to styrene) [6]: 7.0 Wt %

4-hydroxy-2,2,6,6-tetramethylpiperidine-1-oxide [4-hydroxy-TEMPO]
Polymer level at steady state [1]: 180 ppm
Polymer [3]: 0.18 % w/w

C=CCOC1CC(C)(C)N([O])C(C)(C)C1 [4-allyloxy-TEMPO]
Polymer level (at 120 mins) ([1]; at 120 mins (not steady state)): 15199 (at 120 mins) ppm

4-oxo-2,2,6,6-tetramethylpiperidine-1-oxide [4-oxo-TEMPO]
Solubility in toluene ([7]; saturated solution in toluene): >80 % wt/wt
Solubility in water ([7]; saturated solution in water): 22.5 % wt/wt

2,2,6,6-tetramethylpiperidine-1-oxide [TEMPO]
Polymer level at steady state [1]: 213 ppm

COC1CC(C)(C)N([O])C(C)(C)C1 [4-methoxy-TEMPO]
Polymer level at steady state [1]: 172 ppm
